The source of these data is paper PMC8278147, “Synthesis of New 1H-1,2,3-Triazole Analogs in Aqueous Medium via “Click” Chemistry: A Novel Class of Potential Carbonic Anhydrase-II Inhibitors” (Frontiers in Chemistry, 2021).

For the assay, the target named is T1, bovine carbonic anhydrase-II enzyme (Bos taurus, UniProt P00921).
T1 construct: In vitro experiment of bovine erythrocyte CA-II was conducted in HEPES-Tris buffer; from tissue; host or cells: bovine erythrocytes
In words: In vitro carbonic anhydrase-II inhibition assay (p-nitrophenylacetate substrate). The assay is classed as biochemical. To be noted: bovine erythrocyte CA-II, HEPES-Tris buffer pH 7.4, 25°C, substrate p-nitrophenylacetate 0.7 mM, triplicate.

SMILES strings stand for the structures.

T1 sequence (P00921 whole entry): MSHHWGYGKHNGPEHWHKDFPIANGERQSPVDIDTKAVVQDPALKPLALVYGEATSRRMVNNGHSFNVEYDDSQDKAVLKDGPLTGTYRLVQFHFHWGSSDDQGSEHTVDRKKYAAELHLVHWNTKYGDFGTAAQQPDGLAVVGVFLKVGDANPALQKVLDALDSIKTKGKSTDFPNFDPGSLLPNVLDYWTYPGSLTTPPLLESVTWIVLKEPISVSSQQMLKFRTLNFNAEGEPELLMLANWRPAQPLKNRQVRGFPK
Description: In vitro experiment of bovine erythrocyte CA-II was conducted in HEPES-Tris buffer (20 mM) to maintain the pH 7.4. The purified was dissolved in HEPES-Tris buffer (0.1 mg/ml), and the reaction mixture was comprised of 140 μL of the HEPES-Tris buffer, 20 μL of the enzyme, and 20 μL of test compound (prepared in DMSO) and was incubated for 15 min at 25°C. After completion of the preincubation, the reaction was started by adding instantly the substrate p-nitrophenylacetate (P-NPA) at a concentration of 0.7 mM and prepared in methanol. To initiate the reaction, the 96-well plate was placed in a microplate reader and continuous product formation was monitored with a one-minute time interval for 30 min at 400 nm. The assay temperature was strictly controlled and kept at 25°C. All the reaction was conducted in triplicate, and the results are presented as mean.

The compound `COc1cc(Br)ccc1O[C@H](C)Cn1cc(-c2ccc(N)cc2)nn1` [Compound 7b, (R)-4-(1-(2-(4-Bromo-2-methoxyphenoxy)propyl)-1H-1,2,3-triazol-4-yl)aniline] came in with an IC50 of 13.8 ± 0.63 µM.
